Measurements: US11053241B2, “TYK2 inhibitors and uses thereof” (Nimbus Lakshmi, Inc., priority 2018, dated 2021)

Columns and labels:
[1] = biological target: TYK2 kinase domain (JH1) (Homo sapiens (Human), UniProt P29597); test: TYK2 Radioactive Kinase Assay; assay type: biochemical; conditions: compound at 10 μM; ATP at 10 μM; 120 min at room temp
Protocol: (§1) Peptide substrate, [KKSRGDYMTMQIG], (20 μM) was prepared in reaction buffer (20 mM Hepes pH 7.5, 10 mM MgCl2, 1 mM EGTA, 0.02% Brij35, 0.02 mg/mL BSA, 0.1 mM […], 2 mM DTT, 1% DMSO). TYK2 (Invitrogen) kinase was added, followed by compounds in DMSO. ^33PATP was added to initiate the reaction in ATP at 10 μM. The kinase reaction was incubated for 120 min at room temp and reactions were spotted onto P81 ion exchange paper (Whatman #3698-915), and then washed extensively in 0.75% phosphoric acid, prior to reading the radioactivity counts. For JAK2 (Invitrogen) kinase assay the peptide substrate poly[Glu:Tyr](4:1), 0.2 mg/ml was used, in the reaction carried out the same as for TYK2.
(§2) The TYK2 and JAK2 radioactive kinase assay measures the percent inhibition at the TYK2 kinase domain (JH1) and the percent inhibition at the JAK2 kinase domain (JH1). Results of the assay are expressed as percent inhibition at 10 μM.

[2] = biological target: human TYK2 (JH2domain-pseudokinase) (Homo sapiens (Human), UniProt P29597); test: TYK2 JH2 Domain Binding Assay (KINOMEscan); conditions: 11-point 3-fold dilution, top concentration 30,000 nM, duplicate
How it was run: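 Competition binding used an NFkB-DNA-tagged fusion of TYK2 JH2 (G556–D888) expressed in HEK293 extracts against an immobilised ligand, 1 h at room temperature. Bead-bound kinase was quantified by qPCR. Kd came from an 11-point 3-fold series with a 30,000 nM top concentration and 0.9% DMSO, Hill slope −1, run in duplicate.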

[3] = biological target: JAK2 kinase domain (JH1) (Homo sapiens (Human), UniProt O60674); test: JAK2 Radioactive Kinase Assay; assay type: biochemical; conditions: compound at 10 μM; ATP at 10 μM; substrate poly[Glu:Tyr](4:1)
Protocol: as §1, §2

[4] = test system: GM-CSF induced STAT5 phopsphorylation mediated by the JAK2/JAK2 homodimeric complex; test: GM-CSF Induced pSTAT5 in Human PBMC; assay type: cell-based; conditions: 20 min, GM-CSF 5 ng/mL for 20 minutes, read-out: PBMC_GMCSF_pSTAT5 IC50
Protocol: (§3) Human PBMC were isolated from buffy coat and were stored frozen for assays as needed. Cells for assay were thawed and resuspended in complete media containing serum, then cells were diluted to 1.67 E6 cells/mL so that 120 μl per well is 200,000 cells. 15 μl of compound or DMSO was added to the well at the desired concentrations and incubated at 1 hr at 37 C. 15 μl of stimulus (final concentration of 1.7 ng/mL IL-12) was added for 30 minutes prior to pSTAT4 and total STAT4 analysis using cell lysates prepared and analyzed by MSD reagents as per manufacturer protocol. The final DMSO concentration of compound in the assay was 0.1%.
Cells were prepared for analysis as in the above procedure and 15 μl of GM-CSF (final concentration 5 ng/mL) was added for 20 minutes prior to pSTAT5 and total STAT5 analysis using cell lysates prepared and analyzed by MSD reagents as per manufacturer protocol. The final DMSO concentration of compound in the assay was 0.1%.
The GM-CSF Induced pSTAT5 assay is a JAK2 cellular selectivity assay which evaluates inhibition of GM-CSF induced STAT5 phopsphorylation mediated by the JAK2/JAK2 homodimeric complex.

[5] = test system: IL-12 induced STAT4 phophorylation mediated by TYK2/JAK2 (heterodimeric complex); test: IL-12 Induced pSTAT4 in Human PBMC; assay type: cell-based; conditions: 1.7 ng/mL IL-12 for 30 minutes, 1 hr compound preincubation
Protocol: as §3
The IL-12 Induced pSTAT4 assay evaluates the inhibition of IL-12 induced STAT4 phophorylation mediated by TYK2/JAK2 (heterodimeric complex).

TYK2 kinase domain (JH1), sequence (P29597 897-1176): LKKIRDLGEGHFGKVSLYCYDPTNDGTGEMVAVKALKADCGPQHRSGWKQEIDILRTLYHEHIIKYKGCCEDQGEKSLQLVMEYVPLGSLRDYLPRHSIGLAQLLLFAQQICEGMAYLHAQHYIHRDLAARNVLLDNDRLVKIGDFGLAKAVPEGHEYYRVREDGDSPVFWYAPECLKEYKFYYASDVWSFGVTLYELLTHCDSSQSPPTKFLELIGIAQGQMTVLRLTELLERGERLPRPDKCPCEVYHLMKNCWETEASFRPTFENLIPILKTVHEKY
human TYK2 (JH2domain-pseudokinase), sequence (P29597 556-888): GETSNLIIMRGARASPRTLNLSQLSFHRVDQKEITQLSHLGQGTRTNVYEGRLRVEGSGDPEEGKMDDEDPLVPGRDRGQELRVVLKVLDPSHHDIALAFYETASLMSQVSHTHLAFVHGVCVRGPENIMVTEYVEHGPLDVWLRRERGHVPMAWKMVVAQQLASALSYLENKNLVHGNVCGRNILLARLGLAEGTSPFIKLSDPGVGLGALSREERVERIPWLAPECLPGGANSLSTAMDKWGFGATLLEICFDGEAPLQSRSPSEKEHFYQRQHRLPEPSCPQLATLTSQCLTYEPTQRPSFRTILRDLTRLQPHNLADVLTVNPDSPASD
JAK2 kinase domain (JH1), sequence (O60674 849-1124): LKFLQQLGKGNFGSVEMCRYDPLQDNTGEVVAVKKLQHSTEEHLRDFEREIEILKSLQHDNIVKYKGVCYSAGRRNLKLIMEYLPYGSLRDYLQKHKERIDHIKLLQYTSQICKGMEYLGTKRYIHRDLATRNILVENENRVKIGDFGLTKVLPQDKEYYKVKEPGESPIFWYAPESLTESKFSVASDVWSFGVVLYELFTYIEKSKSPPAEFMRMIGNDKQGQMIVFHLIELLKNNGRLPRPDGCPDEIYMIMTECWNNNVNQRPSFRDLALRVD

CNC(=O)c1cnc(NC(=O)C2CC2)c2[nH]c(-c3cccc(-c4ncco4)c3F)cc12 [Compound I-23, 7-(cyclopropanecarboxamido)-2-(2-fluoro-3-(oxazol-2-yl)phenyl)-N-methyl-1H-pyrrolo[2,3-c]pyridine-4-carboxamide]
inhibition at 10 µM [1]: < 50% | Kd [2]: < 0.2 nM | inhibition at 10 µM [3]: < 50% | IC50 [4]: > 50000 nM | IC50 [5]: < 100 nM

CNC(=O)c1cnc(NC(=O)C2CC2)c2[nH]c(-c3ccccc3N3CCCS3(=O)=O)cc12 [Compound I-4, 7-(cyclopropanecarboxamido)-2-(2-(1,1-dioxidoisothiazolidin-2-yl)phenyl)-N-methyl-1H-pyrrolo[2,3-c]pyridine-4-carboxamide]
inhibition at 10 µM [1]: < 50% | Kd [2]: < 0.2 nM | inhibition at 10 µM [3]: < 50% | IC50 [4]: > 12500 nM | IC50 [5]: < 100 nM

CNC(=O)c1cnc(NC(=O)C2CC2)c2[nH]c(-c3cccc(-c4ncn(C)n4)c3)cc12 [Compound I-2, 7-(cyclopropanecarboxamido)-N-methyl-2-(3-(1-methyl-1H-1,2,4-triazol-3-yl)phenyl)-1H-pyrrolo[2,3-c]pyridine-4-carboxamide]
inhibition at 10 µM [1]: < 50% | Kd [2]: < 0.2 nM | inhibition at 10 µM [3]: < 50% | IC50 [4]: > 50000 nM | IC50 [5]: < 100 nM

CNC(=O)c1cnc(NC(=O)C2CC2)c2[nH]c(-c3cccc(-c4cnn(C)c4)c3F)cc12 [Compound I-19, 7-(cyclopropanecarboxamido)-2-(2-fluoro-3-(1-methyl-1H-pyrazol-4-yl)phenyl)-N-methyl-1H-pyrrolo[2,3-c]pyridine-4-carboxamide]
inhibition at 10 µM [1]: < 50% | Kd [2]: < 0.2 nM | inhibition at 10 µM [3]: < 50% | IC50 [4]: > 300 nM | IC50 [5]: < 100 nM

CNC(=O)c1cnc(NC(=O)C2CC2)c2[nH]c(-c3ccc(C(=O)N4CCC4)cc3F)cc12 [Compound I-42, 2-(4-(azetidine-1-carbonyl)-2-fluorophenyl)-7-(cyclopropanecarboxamido)-N-methyl-1H-pyrrolo[2,3-c]pyridine-4-carboxamide]
Kd [2]: < 0.2 nM | IC50 [5]: < 100 nM

Cn1cnc(-c2cccc(-c3cc4c(C(N)=O)cnc(NC(=O)C5CC5)c4[nH]3)c2)n1 [Compound I-12, 7-(cyclopropanecarboxamido)-2-(3-(1-methyl-1H-1,2,4-triazol-3-yl)phenyl)-1H-pyrrolo[2,3-c]pyridine-4-carboxamide]
inhibition at 10 µM [1]: > 90% | Kd [2]: < 0.2 nM | inhibition at 10 µM [3]: > 90% | IC50 [4]: > 300 nM | IC50 [5]: < 100 nM

CNC(=O)c1cnc(NC(=O)C2CC2)c2[nH]c(-c3ccc(C(=O)N4CCC4)cc3OC)cc12 [Compound I-24, 2-(4-(azetidine-1-carbonyl)-2-methoxyphenyl)-7-(cyclopropanecarboxamido)-N-methyl-1H-pyrrolo[2,3-c]pyridine-4-carboxamide]
inhibition at 10 µM [1]: < 50% | Kd [2]: < 0.2 nM | inhibition at 10 µM [3]: < 50% | IC50 [5]: < 100 nM

CNC(=O)c1cnc(NC(=O)C2CC2)c2[nH]c(-c3ccccc3)cc12 [Compound I-1, 7-(cyclopropanecarboxamido)-N-methyl-2-phenyl-1H-pyrrolo[2,3-c]pyridine-4-carboxamide]
inhibition at 10 µM [1]: < 50% | Kd [2]: 1 to 10 nM | inhibition at 10 µM [3]: < 50% | IC50 [4]: > 50000 nM | IC50 [5]: 500 to 1000 nM

CNC(=O)c1cnc(NC(=O)C2CC2)c2[nH]c(-c3cccc(-c4nnn(C)n4)c3F)cc12 [Compound I-52, 7-(cyclopropanecarboxamido)-2-(2-fluoro-3-(2-methyl-2H-tetrazol-5-yl)phenyl)-N-methyl-1H-pyrrolo[2,3-c]pyridine-4-carboxamide]
Kd [2]: < 0.2 nM | IC50 [5]: < 100 nM

CNC(=O)c1cnc(NC(=O)C2CC2)c2[nH]c(-c3cccn(-c4ncc(C)s4)c3=O)cc12 [Compound I-54, 7-(cyclopropanecarboxamido)-N-methyl-2-(1-(5-methylthiazol-2-yl)-2-oxo-1,2-dihydropyridin-3-yl)-1H-pyrrolo[2,3-c]pyridine-4-carboxamide]
Kd [2]: < 0.2 nM | IC50 [5]: 100 to 500 nM

CCOc1ncccc1-c1cc2c(C(=O)NC)cnc(NC(=O)C3CC3)c2[nH]1 [Compound I-33, 7-(cyclopropanecarboxamido)-2-(2-ethoxypyridin-3-yl)-N-methyl-1H-pyrrolo[2,3-c]pyridine-4-carboxamide]
inhibition at 10 µM [1]: < 50% | Kd [2]: 0.2 to 1 nM | inhibition at 10 µM [3]: < 50%

CNC(=O)c1cnc(NC(=O)C2CC2)c2[nH]c(-c3ccc4ccn(C)c4c3F)cc12 [Compound I-21, 7-(cyclopropanecarboxamido)-2-(7-fluoro-1-methyl-1H-indol-6-yl)-N-methyl-1H-pyrrolo[2,3-c]pyridine-4-carboxamide]
inhibition at 10 µM [1]: < 50% | Kd [2]: < 0.2 nM | inhibition at 10 µM [3]: < 50%

CNC(=O)c1cnc(NC(=O)C2CC2)c2[nH]c(-c3cccc(-c4cnc(C)cn4)c3)cc12 [Compound I-27, 7-(cyclopropanecarboxamido)-N-methyl-2-(3-(5-methylpyrazin-2-yl)phenyl)-1H-pyrrolo[2,3-c]pyridine-4-carboxamide]
inhibition at 10 µM [1]: < 50% | Kd [2]: < 0.2 nM | inhibition at 10 µM [3]: < 50%

CNC(=O)c1cnc(NC(=O)C2CC2)c2[nH]c(-c3cccc(-c4cn(C)cn4)c3F)cc12 [Compound I-48, 7-(cyclopropanecarboxamido)-2-(2-fluoro-3-(1-methyl-1H-imidazol-4-yl)phenyl)-N-methyl-1H-pyrrolo[2,3-c]pyridine-4-carboxamide]
Kd [2]: < 0.2 nM | IC50 [5]: < 100 nM

CCn1cc(-c2cc3c(C(=O)NC)cnc(NC(=O)C4CC4)c3[nH]2)ccc1=O [Compound I-31, 7-(cyclopropanecarboxamido)-2-(1-ethyl-6-oxo-1,6-dihydropyridin-3-yl)-N-methyl-1H-pyrrolo[2,3-c]pyridine-4-carboxamide]
inhibition at 10 µM [1]: < 50% | Kd [2]: 1 to 10 nM | inhibition at 10 µM [3]: < 50%

CNC(=O)c1cnc(NC(=O)C2CC2)c2[nH]c(-c3cccc(-n4cnnc4)c3)cc12 [Compound I-18, 2-(3-(4H-1,2,4-triazol-4-yl)phenyl)-7-(cyclopropanecarboxamido)-N-methyl-1H-pyrrolo[2,3-c]pyridine-4-carboxamide]
inhibition at 10 µM [1]: < 50% | Kd [2]: 0.2 to 1 nM | inhibition at 10 µM [3]: < 50%

CNC(=O)c1cnc(NC(=O)C2CC2)c2[nH]c(-c3cc(-c4nccs4)ccn3)cc12 [Compound I-14, 7-(cyclopropanecarboxamido)-N-methyl-2-(4-(thiazol-2-yl)pyridin-2-yl)-1H-pyrrolo[2,3-c]pyridine-4-carboxamide]
inhibition at 10 µM [1]: < 50% | Kd [2]: 0.2 to 1 nM | inhibition at 10 µM [3]: < 50%

CNC(=O)c1cnc(NC(=O)C2CC2)c2[nH]c(-c3cccc(-c4ncn(C)n4)c3F)cc12 [Compound I-36, 7-(cyclopropanecarboxamido)-2-(2-fluoro-3-(1-methyl-1H-1,2,4-triazol-3-yl)phenyl)-N-methyl-1H-pyrrolo[2,3-c]pyridine-4-carboxamide]
inhibition at 10 µM [1]: < 50% | Kd [2]: < 0.2 nM | inhibition at 10 µM [3]: < 50%
